Experiments:
Type in all cases: cell-based
Ba/F3 BCR-ABL1 T315I = molecular target: T1, Ba/F3 BCR-ABL1 T315I (Homo sapiens, UniProt P00519+P11274, T315I); test: Cell growth inhibitory activity assay (CellTiter-Glo), Ba/F3 BCR-ABL1 T315I cells; conditions: 72 h, CTG cell viability
T1 construct: BCR (N-terminal fusion partner of the oncoprotein); expressed in transfected cells; host or cells: Ba/F3 (lentiviral transduction, monoclonal line)
Protocol: (§1) In this assay, the Celltiter-Glo (CTG) kit provided by Promega was used, and it is a homogeneous cell viability assay method. The cell viability of cultured cells was measured by quantifying ATP. K562 cells were purchased from Nanjing Kebai, product number CBP60529; Ba/F3 parental cells were purchased from RIKEN BRC, product number RCB0805; other cells containing BCR-ABL1 WT, BCR-ABL1 T315I, BCR-ABL1 T315M, BCR-ABL1 Y253H/E255K, BCR-ABL1 E255V/T3151, BCR-ABL1 A424T, BCR-ABL1 A337V, BCR-ABL1 P465S, BCR-ABL1 V468F, and BCR-ABL1 I502L were all monoclonal engineered cell lines obtained by transducting Ba/F3 parental cells with the lentivirus plasmids containing WT or corresponding mutated BCR-ABL1.
(§2) The steps of cell viability assay are as follows: • a) Cells in logarithmic growth phase were collected. Cell suspension was prepared and the cells were counted. Concentration of the cells was calculated. • b) The cell suspension was diluted to the required concentration and then added to the middle wells of a 96-well plate, and PBS was added to the edge wells. The wells with no cells and only culture medium were used as blank controls. • c) In addition to the cell plate used for compound analysis, another 96-well plate was prepared as a T0 plate, and 3-6 blank wells and 3-6 cell wells were added. The next day, CTG was used to test the cell viability as the T0 viability value of the cells. • d) The cell plate was incubated at 37 °C in a 5% CO2 incubator overnight. • e) The next day, each concentration of a compound subjected to a gradient dilution was added, and the cell plate was incubated at 37 °C in a 5% CO2 incubator for 72 h. The wells with no compound and only 0.5% DMSO were used as positive controls for cell growth. • f) CTG reagent (CellTiter-Glo kit) was added according to the manufacturer's instructions to test the cell viability value. • g) The plate was read using Biotek cytation3.0 microplate reader and the data were exported. • h) IC50 was calculated using GraphPad Prism 7.0 software.
(§3) The IC50 (half-maximal inhibitory concentration) of the compound was obtained using the following nonlinear fitting formula: Y = Bottom + (Top−Bottom)/(1+10^(∧)((LogIC50−X)*HillSlope)) [formula] • X: Log value of the compound concentration • Y: Inhibition rate (% inhibition) • Top: Maximum response • Bottom: Baseline response • HillSlope: Slope of the curve
(§4) The formula for calculating cell inhibition rate (inhibition rate %) was: [formula]

K562 cells = test: Cell growth inhibitory activity assay (CellTiter-Glo), K562 cells; conditions: Homo sapiens, 72 h, CTG cell viability
Protocol: as §1, §2, §3, §4

Ba/F3 parental cells = test: Cell growth inhibitory activity assay (CellTiter-Glo), Ba/F3 parental cells; conditions: Mus musculus, BaF3, 72 h, CTG cell viability, read-out: IC50 Ba/F3 BCR-ABL1 Parental
Protocol: as §1, §2, §3, §4

Ba/F3 BCR-ABL1 WT = molecular target: T2, Ba/F3 BCR-ABL1 WT (Homo sapiens, UniProt P00519+P11274); test: Cell growth inhibitory activity assay (CellTiter-Glo), Ba/F3 BCR-ABL1 WT cells; conditions: 72 h, CTG cell viability
T2 construct: BCR (N-terminal fusion partner of the oncoprotein); expressed in transfected cells; host or cells: Ba/F3 (lentiviral transduction, monoclonal line)
Protocol: as §1, §2, §3, §4

IC50 (K562 cells) [nM] | SMILES | IC50 (Ba/F3 BCR-ABL1 T315I) [nM] | IC50 (Ba/F3 parental cells) [nM] | IC50 (Ba/F3 BCR-ABL1 WT) [nM]
≤ 5 | O=C(Nc1ccc(OC(F)(F)Cl)cc1)c1cnc(N2CC[C@@H](F)C2)c(-c2cnc3c(c2)-c2n[nH]cc2C3)c1 [T-1, (R)-N-(4-(chlorodifluoromethoxy)phenyl)-5-(2,4-dihydropyrazolo[3',4':3,4]cyclopenta[1,2-b]pyridin-7-yl)-6-(3-fluoropyrrolidin-1-yl)nicotinamide] | ≤ 5 | > 1000 | ≤ 5
≤ 5 | O=C(Nc1ccc(OC(F)(F)Cl)cc1)c1cnc(N2CC[C@@H](F)C2)c(-c2cnc3c(c2)-c2nn(-c4ncccn4)cc2C3)c1 [T-5, (R)-N-(4-(chlorodifluoromethoxy)phenyl)-6-(3-fluoropvrrolidin-1-yl)-5-(2-(pyrimidin-2-yl)-2,4-dihydropyrazolo[3',4':3,4]cyclopenta[1,2-b]pyridin-7-yl)nicotinamide] | ≤ 5 | > 1000 | ≤ 5
≤ 5 | O=C(Nc1ccc(OC(F)(F)Cl)cc1)c1cnc(N2CC[C@@H](F)C2)c(-c2cnc3c(c2)-c2nn(-c4ncc(F)cn4)cc2C3)c1 [T-6-A, (R)-N-(4-(chlorodifluoromethoxy)phenyl)-5-(2-(5-fluoropyrimidin-2-yl)-2,4-dihydropyrazolo[3',4':3,4]cyclopenta[1,2-b]pyridin-7-yl)-6-(3-fluoropyrrolidin-1-yl)nicotinamide] | ≤ 5 | > 1000 | ≤ 5
≤ 5 | O=C(Nc1ccc(OC(F)(F)Cl)cc1)c1cnc(N2CC[C@@H](F)C2)c(-c2cnc3c(c2)-c2c(cnn2-c2ncc(F)cn2)C3)c1 [T-6-B, (R)-N-(4-(chlorodifluoromethoxy)phenyl)-5-(1-(5-fluoropyrimidin-2-yl)-1,4-dihydropyrazolo[3',4':3,4]cyclopenta[1,2-b]pyridin-7-yl)-6-(3-fluoropyrrolidin-1-yl)nicotinamide] | 5 to 50 | > 1000 | ≤ 5
≤ 5 | O=C(Nc1ccc(OC(F)(F)Cl)cc1)c1cnc(N2CC[C@@H](F)C2)c(-c2cnc3c(c2)-c2nn(-c4nccc(-c5ccc(F)nc5)n4)cc2C3)c1 [T-141, (R)-N-(4-(chlorodifluoromethoxy)phenyl)-5-(2-(4-(6-fluoropyridin-3-yl)pyrimidin-2-yl)-2,4-dihydropyrazolo[3',4':3,4]cyclopenta[1,2-b]pyridin-7-yl)-6-(3--fluoropyrrolidin-1-yl)nicotinamide] | ≤ 5 |  | ≤ 5
≤ 5 | O=C(Nc1ccc(OC(F)(F)Cl)cc1)c1cnc(N2CC[C@@H](F)C2)c(-c2cnc3c(c2)-c2nn(-c4nccc(-c5cncc(F)c5)n4)cc2C3)c1 [T-142, (R)-N-(4-(chlorodifluoromethoxy)phenyl)-5-(2-(4-(5-fluoropyridin-3-yl)pyrimidin-2-yl)-2,4-dihydropyrazolo[3',4':3,4]cyclopenta[1,2-b]pyridin-7-yl)-6-(3-fluoropyrrolidin-1-yl)nicotinamide] | ≤ 5 |  | ≤ 5

More lines, now with the values behind:

SMILES | IC50 (K562 cells) [nM] | IC50 (Ba/F3 BCR-ABL1 T315I) [nM] | IC50 (Ba/F3 parental cells) [nM] | IC50 (Ba/F3 BCR-ABL1 WT) [nM]
CC(=O)NC1CCC2c3cc(C(=O)Nc4ccc(OC(F)(F)Cl)cc4)cc(-c4cnccn4)c3N(C(C)C)C12 (racemic) [T-12, 3-acetamido-N-(4-(chlorodifluoromethoxy)phenyl)-4-isopropyl-5-(pyrazin-2-yl)-1,2,3,3a,4,8b-hexahydrocyclopenta[b]indole-7-carboxamide] | 5 to 50 | 50 to 1000 | > 1000 | 5 to 50
CN1Cc2ncc(-c3cc(C(=O)Nc4ccc(OC(F)(F)Cl)cc4)cc4c3C3(CCCCC3)C(=O)N4)cc2C1=O [T-8, N-(4-(chlorodifluoromethoxy)phenyl)-4'-(6-methyl-5-oxo-6,7-dihydro-5H-pyrrolo[3,4-b]pyridin-3-yl)-2'-oxospiro[cyclohexane-1,3'-indoline]-6'-carboxamide] | ≤ 5 | 5 to 50 | > 1000 | ≤ 5
C[C@@H]1COCc2nc3cc(C(=O)Nc4ccc(OC(F)(F)Cl)cc4)cc(-c4cnc5c(c4)-c4nn(C(F)F)cc4C5)c3n21 [T-51, (R)-N-(4-(chlorodifluoromethoxy)phenyl)-6-(2-(difluoromethyl)-2,4-dihydropyrazolo[3',4':3,4]cyclopenta[1,2-b]pyridin-7-yl)-4-methyl-3,4-dihydro-1H-benzo[4,5]imidazo[2,1-c][1,4]oxazine-8-carboxamide] | ≤ 5 |  | > 1000 | 5 to 50
[2H]C1([2H])c2cn(-c3ncccn3)nc2-c2cc(-c3cc(C(=O)Nc4ccc(OC(F)(F)Cl)cc4)cc4nc5n(c34)[C@H](C)COC5)cnc21 [T-105, (R)-N-(4-(chlorodifluoromethoxy)phenyl)-4-methyl-6-(2-(pyrimidin-2-yl)-2,4-dihydropyrazolo[3',4':3,4]cyclopenta[1,2-b]pyridin-7-yl-4,4-d2)-3,4-dihydro-1H-benzo[4,5]imidazo[2,1-c][1,4]oxazine-8-carboxamide] | ≤ 5 | ≤ 5 |  | ≤ 5
C[C@@H]1COCc2nc3cc(C(=O)Nc4ccc(OC(F)(F)Cl)cc4)cc(-c4cnc5c(c4)-c4nn(-c6ncccn6)cc4C5O)c3n21 (stereo partly drawn) [T-106, (4R)-N-(4-(chlorodifluoromethoxy)phenyl)-6-(4-hydroxy-2-(pyrimidin-2-yl)-2,4-dihydropyrazolo[3',4':3,4]cyclopenta[1,2-b]pyridin-7-yl)-4-methyl-3,4-dihydro-1H-benzo[4,5]imidazo[2,1-c][1,4]oxazine-8-carboxamide] | ≤ 5 | ≤ 5 |  | ≤ 5
C[C@@H]1COCc2nc3cc(C(=O)Nc4ccc(OC(F)(F)Cl)cc4)cc(-c4cnc5c(c4)-c4nn(-c6ncccn6)cc4C5F)c3n21 (stereo partly drawn) [T-107, (4R)-N-(4-(chlorodifluoromethoxy)phenyl)-6-(4-fluoro-2-(pyrimidin-2-yl)-2,4-dihydropyrazolo[3',4':3,4]cyclopenta[1,2-b]pyridin-7-yl)-4-methyl-3,4-dihydro-1H-benzo[4,5]imidazo[2,1-c][1,4]oxazine-8-carboxamide] | ≤ 5 | ≤ 5 |  | ≤ 5
Cn1ccc(-c2ccnc(-n3cc4c(n3)-c3cc(-c5cc(C(=O)Nc6ccc(OC(F)(F)Cl)cc6)cc6c5C5(CCCCC5)C(=O)N6)cnc3C4)n2)n1 [T-138, N-(4-(chlorodifluoromethoxy)phenyl)-4'-(2-(4-(1-methyl-1H-pyrazol-3-yl)pyrimidin-2-yl)-2,4-dihydropyrazolo[3',4':3,4]cyclopenta[1,2-b]pyridin-7-yl)-2'-oxospiro[cyclohexane-1,3'-indoline]-6'-carboxamide] | ≤ 5 | ≤ 5 |  | ≤ 5
O=C(Nc1ccc(OC(F)(F)Cl)cc1)c1cc2c(c(-c3cnc4c(c3)-c3nn(-c5nccc(-c6ccc(F)nc6)n5)cc3C4)c1)C1(CCCCC1)C(=O)N2 [T-139, N-(4-(chlorodifluoromethoxy)phenyl)-4'-(2-(4-(6-fluoropyridin-3-yl)pyrimidin-2-yl)-2,4-dihydropyrazolo[3',4':3,4]cyclopenta[1,2-b]pyridin-7-yl)-2'-oxospiro[cyclohexane-1,3'-indoline]-6'-carboxamide] | ≤ 5 | ≤ 5 |  | ≤ 5
O=C(Nc1ccc(OC(F)(F)Cl)cc1)c1cc2c(c(-c3cnc4c(c3)-c3nn(-c5nccc(-c6cncc(F)c6)n5)cc3C4)c1)C1(CCCCC1)C(=O)N2 [T-140, N-(4-(chlorodifluoromethoxy)phenyl)-4'-(2-(4-(5-fluoropyridin-3-yl)pyrimidin-2-yl)-2,4-dihydropyrazolo[3',4':3,4]cyclopenta[1,2-b]pyridin-7-yl)-2'-oxospiro[cyclohexane-1,3'-indoline]-6'-carboxamide] | ≤ 5 | ≤ 5 |  | ≤ 5
